Measurements as given in patent US4565814A, “Pyridazine derivatives having a psychotropic action and compositions” (priority 1983, dated 1986).
Read-outs that look alike come from different tables or passages of the source.

Columns and labels:
[1] = system: CD1 Charles River female mice with unilateral lesion of the striatum; test: Rotational behaviour after unilateral 6-hydroxydopamine lesion of the striatum, intraperitoneal; type: in vivo, mouse; details: for Rotational behaviour of mice (intraperitoneal administration): Table 9, decrease: minus sign printed at end of the dose line, * p < 0.01, Student test; for Rotational behaviour, intraperitoneal administration (change of rotations vs control): Table 8, 1 hour after administration
Experimental: CD1 Charles River female mice weighing from 20 to 24 g first undergo unilateral lesion of the striatum by the stereotaxic injection of 6-hydroxydopamine at a dose of 8 μg per animal. One week after this operation, the product is administered intraperitoneally to groups of 7 mice. The number of rotations is evaluated over 2 minutes, 1 hour after the administration of the product. Rotations on the same side as the lesion are counted as positive and those on the opposite side are counted as negative.

in vivo = type: in vivo; details: mouse, in vivo, ip; Table 9; i.p.; mortality noted for 24 hours; read-out: Toxicity, intraperitoneal administration, LD50
Experimental: (§1) The products to be studied were administered intraperitoneally in increasing doses to batches of 10 mice.
(§2) The 50% lethal dose, that is to say the dose causing the […] of 50% of the animals studied, is determined from the results obtained for each of the products studied.

[2] = system: reserpine-induced ptosis in CD1 (Charles River) female mice; test: Antagonism of reserpine-induced ptosis, intraperitoneal; type: in vivo; details: Mus musculus, ip, i.p., reserpine 2 mg/kg i.v., read 1 hour after reserpine
Experimental: ANTAGONISM OF RESERPINE-INDUCED PTOSIS
This test, which is described by GOURET (Journal de pharmacologie Paris 1973, 4 (1), 105-128), was carried out on CD1 (Charles River) female mice weighing 20 g plus or minus 1 g. Reserpine causes ptosis 1 hour after its intravenous administration; certain antidepressants oppose this ptosis.
The following protocol was selected:
The substances to be studied were administered intraperitoneally. The reserpine is administered intravenously at the same time, at a dose of 2 mg/kg.

[3] = system: CD1 (Charles River) female mice; test: Despair behaviour (Porsolt forced-swim immobility), intraperitoneal; type: in vivo, mouse; details: Table 8, 1 hour before test, ++ significant (Student test)
Experimental: The principle of this test is as follows: when a mouse is placed in a narrow vessel filled with water, it struggles and then, after 2 to 4 minutes, it becomes immobile and floats on its abdomen, with its back hunched and its back paws tucked under the body, and it only makes the few movements necessary to keep its head above the water. This is the so-called despair reaction. Certain psychotropic drugs, in particular antidepressants, lengthen the time for which the mouse struggles. The following protocol was selected: The products to be studied were administered intraperitoneally 1 hour before the test. For the test, the animals are placed in a narrow vessel (10×10×10 cm) filled with water to a height of 6 cm, the temperature being 24° C. plus or minus 2° C. The animals are left in the water for 6 minutes and the time for which the animal remains immobile between the 2nd and 6th minutes is measured. The activity of the substance is the greater, the shorter this time. Each substance was studied on a batch of 10 mice. The results are the average of at least two experiments.

mice = test: in vivo; type: in vivo; details: i.p., mortality noted for 24 hours
Experimental: as §1, §2

[4] = Table 9, read-out: Test for the antagonism of reserpine-induced ptosis, intraperitoneal administration, ED50
[5] = 2 mg/kg i.p., ++ significant (Student test)
[6] = Table 8, read-out: Reserpine-induced ptosis, intraperitoneal administration, ED50

SMILES	Rotational behaviour of mice (intraperitoneal administration) ([1]; 0.5 mg/kg i.p.) [%]	Rotational behaviour of mice (intraperitoneal administration) ([1]; 2 mg/kg i.p.) [%]	LD50 at 24 h (in vivo) [mg/kg]	ED50 [2, 4] [mg/kg]	Rotational behaviour, intraperitoneal administration (change of rotations vs control) ([1]; 0.125 mg/kg i.p., ++ significant (Student test)) [%]	Rotational behaviour, intraperitoneal administration (change of rotations vs control) [1, 5] [%]	Despair behaviour, intraperitoneal administration (change of immobility time) ([3]; 5 mg/kg i.p.) [%]	Toxicity, intraperitoneal administration, LD50 (mice; Table 8) [mg/kg]	Toxicity, intraperitoneal administration, LD50 (mice; Table 9) [mg/kg]	ED50 [2, 6] [mg/kg]	Rotational behaviour, intraperitoneal administration (change of rotations vs control) ([1]; 0.1 mg/kg i.p., ++ significant (Student test)) [%]	Rotational behaviour, intraperitoneal administration (change of rotations vs control) ([1]; 3 mg/kg i.p., n.s.: not significant) [%]	Despair behaviour, intraperitoneal administration (change of immobility time) ([3]; 10 mg/kg i.p.) [%]
N#Cc1cc(-c2ccsc2)nnc1NCCN1CCOCC1 [SR 95 274 A]	-60	-82	> 300	2.6	–	–	–	–	–	–	–	–	–
Cc1cc(-c2ccccc2)nnc1NCCN1CCOCC1 [Minaprine]	–	-82	–	5	-53	-82	-31	63	63	5	–	–	–
Cl.Cl.N#Cc1cc(-c2ccccc2)nnc1NCCN1CCOCC1 [SR 95191, 3-(2-Morpholinoethylamino)-4-cyano-6-phenylpyridazine dihydrochloride]	–	–	–	–	–	-107	-26	–	–	3.9	-60	–	–
CN(C)CCCN1c2ccccc2CCc2ccccc21 [iminaprine]	–	–	–	–	–	–	–	–	–	2.4	–	-6	-38
